The text below walks through data of patent US10206394B2, “Herbicidal compounds” (Syngenta Participations AG, priority 2014, dated 2019).

Type in all cases: in vivo
For data set [1], the system named is Alopecurus myosuroides (ALOMY). The data set is described as follows: Glasshouse assay for herbicidal activity (pre- and post-emergence), percentage phytotoxicity. Conditions: Alopecurus myosuroides, Rate 250 g/ha, 100%=total damage, 0%=no damage. In outline:
(§1)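 Pot-grown plants treated one day after sowing (pre-emergence) or at about 12 days (post-emergence); glasshouse at 24/18° C (warm) or 20/16° C (cool species) day/night, 16 h light, 65% humidity. Visual % phytotoxicity (0 = none, 100 = total damage) scored at 15 DAA post or 20 DAA pre.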

For data set [2], the system named is Avena fatua (AVEFA). The data set is described as above. Particulars: Avena fatua, Rate 250 g/ha, 100%=total damage, 0%=no damage. In outline:
as §1

The subject of data set [3] is Echinochloa crus-galli (ECHCG). The data set is described as above. Conditions: Echinochloa crus-galli, Rate 250 g/ha, 100%=total damage, 0%=no damage. In outline:
as §1

For data set [4], the system named is Lolium perenne (LOLPE). The data set is described as above. Particulars: Lolium perenne, Rate 250 g/ha, 100%=total damage, 0%=no damage. In outline:
as §1

For data set [5], the system named is Winter Wheat variety 'Hereward'. Nature of the data set: Glasshouse assay for crop safety, post-emergence, +/- safener cloquintocet-mexyl (CQC), percentage phytotoxicity. Conditions: 250 g/ha, evaluated after 13 days, 100=total damage, 0=no damage; for Post-emergence Crop Selectivity, percentage phytotoxicity, Wheat +CQC: with safener cloquintocet-mexyl (CQC) seed treatment 0.5 g/kg seed; for Post-emergence Crop Selectivity, percentage phytotoxicity, Wheat − CQC: without safener cloquintocet-mexyl (CQC). The source says:
Test—Glasshouse Assay for Crop Safety.
Seeds of the Winter Wheat variety ‘Hereward’ were seed treated with a wettable powder formulation of the cereal herbicide safener, cloquintocet mexyl, at a rate of 0.5 grams per kilogram of dry seed prior to the initiation of glasshouse testing. Three seeds were sown per 1.5 inch plastic pot into a sandy loam soil at a depth of 1 cm, 8 days prior to application of the test compounds and was watered and grown under controlled conditions in a glasshouse (at 24/16° C., day/night; 14 hours light; 65% humidity). The plants were sprayed Post-emergence with an aqueous spray solution derived from the formulation of the technical active ingredient in acetone/water (50:50) solution containing 0.5% Tween 20 (polyoxyethelyene sorbitan monolaurate, CAS RN 9005-64-5).
The test plants were then grown in a glasshouse under controlled conditions (at 24/16° C., day/night; 14 hours light; 65% humidity) and watered twice daily. After 13 days for pre and post-emergence, the test was evaluated (100=total damage to plant; 0=no damage to plant).

Where [6] appears, read: post-emergence, 360 h, post-emergence, assessed visually 15 DAA, read-out: Post-emergence herbicidal activity (percentage phytotoxicity) ALOMY POST.
The mark [7] stands for this setting: pre-emergence, 480 h, pre-emergence, assessed visually 20 DAA, read-out: Pre-emergence herbicidal activity (percentage phytotoxicity) ALOMY PRE.
Setting [8] is: post-emergence, 360 h, post-emergence, assessed visually 15 DAA, read-out: Post-emergence herbicidal activity (percentage phytotoxicity) AVEFA POST.
Setting [9] is: pre-emergence, 480 h, pre-emergence, assessed visually 20 DAA, read-out: Pre-emergence herbicidal activity (percentage phytotoxicity) AVEFA PRE.
Where [10] appears, read: post-emergence, 360 h, post-emergence, assessed visually 15 DAA, read-out: Post-emergence herbicidal activity (percentage phytotoxicity) ECHCG POST.
[11] abbreviates: pre-emergence, 480 h, pre-emergence, assessed visually 20 DAA, read-out: Pre-emergence herbicidal activity (percentage phytotoxicity) ECHCG PRE.
Setting [12] is: post-emergence, 360 h, post-emergence, assessed visually 15 DAA, read-out: Post-emergence herbicidal activity (percentage phytotoxicity) LOLPE POST.
The mark [13] stands for this setting: pre-emergence, 480 h, pre-emergence, assessed visually 20 DAA, read-out: Pre-emergence herbicidal activity (percentage phytotoxicity) LOLPE PRE.

Like-named read-outs stand apart in the source and are kept apart here.

`Cc1cc(-c2ccc(Cl)cn2)cc(C)c1C1C(=O)CC(CC(=O)NCc2cccc(C(F)(F)F)c2)C1=O` (stereo not shown) [Compound A146]: the pest or weed control at 250 g/ha in data set [1] (setting [6]) was found to be 100%; in data set [1] (setting [7]), 80%; in data set [2] (setting [8]), 100%; in data set [2] (setting [9]) it was 90%; in data set [3] (setting [10]), 100%; in data set [3] (setting [11]), 90%. Moreover, the pest or weed control at 250 g/ha was determined as 100% in data set [4] (setting [12]) and 90% in data set [4] (setting [13]). In addition, in data set [5], the “Post-emergence Crop Selectivity, percentage phytotoxicity, Wheat +CQC” value was found to be 50%. Further, the “Post-emergence Crop Selectivity, percentage phytotoxicity, Wheat − CQC” value in data set [5] amounted to 80%.

`Cc1cc(C)c(C2C(=O)CC(CC(=O)NCC3CC3)C2=O)c(C)c1` (stereo not shown) [Compound A19]: the pest or weed control at 250 g/ha in data set [1] (setting [6]) stood at 90%; in data set [1] (setting [7]), 90%; in data set [2] (setting [8]) it was 80%; in data set [2] (setting [9]), 70%; in data set [3] (setting [10]), 80%; in data set [3] (setting [11]), 90%. The pest or weed control at 250 g/ha in data set [4] (setting [12]) and in data set [4] (setting [13]) was 90% in each case. Also, the “Post-emergence Crop Selectivity, percentage phytotoxicity, Wheat +CQC” value in data set [5] came to 40%. In data set [5], the “Post-emergence Crop Selectivity, percentage phytotoxicity, Wheat − CQC” value was determined as 80%.

Consider `Cc1cc(C)c(C2C(=O)CC(CC(=O)NC(C)(C)C)C2=O)c(C)c1` (stereo not shown) [Compound A2, N-tert-butyl-2-[2,4-dioxo-3-(2,4,6-trimethylphenyl)cyclopentyl]-acetamide], for which the pest or weed control at 250 g/ha in data set [1] (setting [6]) came out at 80%; in data set [1] (setting [7]), 80%; in data set [2] (setting [8]) it was 70%; in data set [2] (setting [9]) it was 10%; in data set [3] (setting [10]) it was 50%; in data set [3] (setting [11]) it was 70%. The pest or weed control at 250 g/ha in data set [4] (setting [12]) and in data set [4] (setting [13]) was 80% each time. In addition, the “Post-emergence Crop Selectivity, percentage phytotoxicity, Wheat +CQC” value in data set [5] is on record as 10%. The “Post-emergence Crop Selectivity, percentage phytotoxicity, Wheat − CQC” value in data set [5] was 10%.

For `Cc1cc(C)c(C2C(=O)CC(CC(=O)NC(C)C)C2=O)c(C)c1` (stereo not shown) [Compound A7], the pest or weed control at 250 g/ha in data set [1] (setting [6]) amounted to 90%; in data set [1] (setting [7]), 80%; in data set [2] (setting [8]), 90%; in data set [2] (setting [9]), 60%; in data set [3] (setting [10]) it was 100%; in data set [3] (setting [11]), 90%. For the same molecule, the pest or weed control at 250 g/ha in data set [4] (setting [12]) and in data set [4] (setting [13]) was 100% each time. Further, in data set [5], the “Post-emergence Crop Selectivity, percentage phytotoxicity, Wheat +CQC” value is on record as 20%. In addition, the “Post-emergence Crop Selectivity, percentage phytotoxicity, Wheat − CQC” value in data set [5] stood at 30%.

As to `Cc1cc(-c2ncc(F)cn2)cc(C)c1C1C(=O)CC(CC(=O)NCc2cccc(Cl)c2)C1=O` (stereo not shown) [Compound A138], the pest or weed control at 250 g/ha was determined as 90% in data set [1] (setting [6]); 90% in data set [1] (setting [7]); 100% in data set [2] (setting [8]); 100% in data set [2] (setting [9]); 100% in data set [3] (setting [10]); 100% in data set [3] (setting [11]). Besides, the pest or weed control at 250 g/ha in data set [4] (setting [12]) and in data set [4] (setting [13]) was 100% each time. Moreover, in data set [5], the “Post-emergence Crop Selectivity, percentage phytotoxicity, Wheat +CQC” value is reported as 40%. In data set [5], the “Post-emergence Crop Selectivity, percentage phytotoxicity, Wheat − CQC” value was determined as 70%.

Turning to `CCCNC(=O)CC1CC(=O)C(c2c(C)cc(C)cc2C)C1=O` (stereo not shown) [Compound A26], the pest or weed control at 250 g/ha in data set [1] (setting [6]) is 80%; in data set [1] (setting [7]) it was 80%; in data set [2] (setting [8]), 80%; in data set [2] (setting [9]) it was 70%; in data set [3] (setting [10]), 80%; in data set [3] (setting [11]), 80%. In addition, the pest or weed control at 250 g/ha came out at 90% in data set [4] (setting [12]) and 100% in data set [4] (setting [13]). Besides, the “Post-emergence Crop Selectivity, percentage phytotoxicity, Wheat +CQC” value in data set [5] is reported as 40%. The “Post-emergence Crop Selectivity, percentage phytotoxicity, Wheat − CQC” value in data set [5] was determined as 70%.

Consider `Cc1cc(C)c(C2C(=O)CC(CC(=O)NCCc3ccccc3)C2=O)c(C)c1` (stereo not shown) [Compound A1, 2-[2,4-dioxo-3-(2,4,6-trimethylphenyl)cyclopentyl]-N-phenethyl-acetamide], for which the pest or weed control at 250 g/ha in data set [1] (setting [6]) was found to be 60%; in data set [1] (setting [7]) it was 60%; in data set [2] (setting [8]), 60%; in data set [2] (setting [9]) it was 60%; in data set [3] (setting [10]) it was 80%; in data set [3] (setting [11]), 90%. Further, the pest or weed control at 250 g/ha in data set [4] (setting [12]) came to 80%; in data set [4] (setting [13]) it was 100%. In addition, the “Post-emergence Crop Selectivity, percentage phytotoxicity, Wheat +CQC” value in data set [5] is reported as 0%. Besides, in data set [5], the “Post-emergence Crop Selectivity, percentage phytotoxicity, Wheat − CQC” value was 60%.

As to `Cc1cc(C)c(C2C(=O)CC(CC(=O)NCc3ccccc3)C2=O)c(C)c1` (stereo not shown) [Compound A4], the pest or weed control at 250 g/ha in data set [1] (setting [6]) worked out at 50%; in data set [1] (setting [7]), 50%; in data set [2] (setting [8]) it was 80%; in data set [2] (setting [9]), 30%; in data set [3] (setting [10]), 80%; in data set [3] (setting [11]), 70%. In addition, the figures for the pest or weed control at 250 g/ha in data set [4] (setting [12]) and in data set [4] (setting [13]) were 90% and 80%, respectively. In addition, in data set [5], the “Post-emergence Crop Selectivity, percentage phytotoxicity, Wheat +CQC” value is listed as 10%. The “Post-emergence Crop Selectivity, percentage phytotoxicity, Wheat − CQC” value in data set [5] turned out to be 60%.

Consider `Cc1cc(C)c(C2C(=O)CC(CC(=O)N3CCCCC3)C2=O)c(C)c1` (stereo not shown) [Compound A22], for which the pest or weed control at 250 g/ha in data set [1] (setting [6]) came to 80%; in data set [1] (setting [7]), 60%; in data set [2] (setting [8]), 60%; in data set [2] (setting [9]), 30%; in data set [3] (setting [10]) it was 90%; in data set [3] (setting [11]), 100%. In addition, the values for the pest or weed control at 250 g/ha in data set [4] (setting [12]) and in data set [4] (setting [13]) were 80% and 70%, respectively. Further, the “Post-emergence Crop Selectivity, percentage phytotoxicity, Wheat +CQC” value in data set [5] is reported as 50%. Further, the “Post-emergence Crop Selectivity, percentage phytotoxicity, Wheat − CQC” value in data set [5] came to 60%.

As for `Cc1cc(-n2cc(Cl)cn2)cc(C)c1C1C(=O)CC(CC(=O)NC2(c3ccccn3)CC2)C1=O` (stereo not shown) [Compound A73], the pest or weed control at 250 g/ha in data set [1] (setting [6]) is 70%; in data set [1] (setting [7]), 70%; in data set [2] (setting [8]) it was 80%; in data set [2] (setting [9]) it was 10%; in data set [3] (setting [10]), 90%; in data set [3] (setting [11]), 90%. Moreover, the pest or weed control at 250 g/ha in data set [4] (setting [12]) is 40%; in data set [4] (setting [13]) it was 30%. In addition, the “Post-emergence Crop Selectivity, percentage phytotoxicity, Wheat +CQC” value in data set [5] is given as 20%. For the same molecule, in data set [5], the “Post-emergence Crop Selectivity, percentage phytotoxicity, Wheat − CQC” value stood at 80%.
